# Measurements as given in the supplement of paper PMC11208160.
# Assay: recombinant barcode read abundance after kanamycin selection (control-corrected) (log10(CPM+1)); higher = more efficient recombination; sequences stand for … in AGTGCAGAGAAAATCGGCCAGTTTTCTCTGCCTGCAGTCCGCATGCCGT…AGATTTATGCAGCGGACTGCCTTTCTCCCAAAGTGATAAACCGGACAGTATCATGGACCGGTTTTCCCGGTAATCCGTATTTGCAAGGTTGGTTTCACT; site = the 11-nt target
# How it was run: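 Recombination efficiency was calculated from barcode counts at recombinant junctions, normalized to counts per million, averaged and corrected by the control. Each value is given as log10(CPM+1). The constructs were Gibson-cloned oligos (promoter, target, barcode, J23119-driven first 104 bridge RNA bases) in a vector with the remaining 73 bp and a T7-inducible recombinase, co-electroporated into E. coli with a donor plasmid and plated in duplicate on chloramphenicol/ampicillin LB agar (control) or chloramphenicol/ampicillin/kanamycin with 0.1 mM IPTG.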
# 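Note: IS621 recombinase and bridge RNA in Escherichia coli cells.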
row,Sequence,recombinant barcode read abundance (log10)
1,CGCCGTCCTTGGGTTCTAACCTGTTGCAT (site CGCCATCCTAT),0.0426
2,CGCCGTCCTTGGGTTCTAACCTGTTGCAT (site CGCCCTCCTAT),0.103
3,CGCCGTCCTTGGGTTCTAACCTGTTGCAT (site CGCCGTCCTAT),0.279
4,CGCCGTCCTTGGGTTCTAACCTGTTGCAT (site CGCCTTCCTAT),0.099
5,CGCCTAGCTTGGGTTCTAACCTGTTGCCT (site CGCCTAGCTAG),0.206
6,CGCCTAGCTTGGGTTCTAACCTGTTGCCT (site CTCCTACCTAG),0.0925
7,CGCCTCCCTTGGGTTCTAACCTGTTGCCT (site CGCCTCACTAG),0.179
8,CGCCTCCCTTGGGTTCTAACCTGTTGCCT (site CGCCTCCCTAG),0.446
9,CGCCTCCCTTGGGTTCTAACCTGTTGCCT (site CGCCTCGCTAG),0
10,CGCCTCCCTTGGGTTCTAACCTGTTGCCT (site CGCCTCTCTAG),0.0882
11,CGCCTCGCTTGGGTTCTAACCTGTTGCCT (site CGCCTCACTAG),0.07
12,CGCCTCGCTTGGGTTCTAACCTGTTGCCT (site CGCCTCCCTAG),0.16
13,CGCCTCGCTTGGGTTCTAACCTGTTGCCT (site CGCCTCGCTAG),0.0366
14,CGCCTCGCTTGGGTTCTAACCTGTTGCCT (site CGCCTCTCTAG),0.259
15,CGCGATCCTTGGGTTCTAACCTGTTGCCT (site CGCGATCCTAG),0.431
16,CGCGATCCTTGGGTTCTAACCTGTTGCCT (site CGCGCTCCTAG),0.0201
17,CGCGATCCTTGGGTTCTAACCTGTTGCCT (site CGCGGTCCTAG),0.468
18,CGCGATCCTTGGGTTCTAACCTGTTGCCT (site CGCGTTCCTAG),0.265

row,Sequence,recombinant barcode read abundance (log10)
1,CGCGCAACTTGGGTTCTAACCTGTTGCCT (site CGCGCAACTAG),0.0454
2,CGCGCAACTTGGGTTCTAACCTGTTGCCT (site CGCGTAACTAG),0.185
3,CGCGGGTCTTGGGTTCTAACCTGTTGCTT (site CGCGAATCTAA),0.236
4,CGCGGGTCTTGGGTTCTAACCTGTTGCTT (site CGCGGGTCTAA),0.88
5,CGCGTTCCTTGGGTTCTAACCTGTTGCCT (site CGCGATCCTAG),0.262
6,CGCGTTCCTTGGGTTCTAACCTGTTGCCT (site CGCGCTCCTAG),0.608
7,CGCGTTCCTTGGGTTCTAACCTGTTGCCT (site CGCGGTCCTAG),0.542
8,CGCGTTCCTTGGGTTCTAACCTGTTGCCT (site CGCGTTCCTAG),0.197
9,CGCTGACCTTGGGTTCTAACCTGTTGCTT (site CGCTGACCTAA),0.0663
10,CGCTGACCTTGGGTTCTAACCTGTTGCTT (site CGCTGCCCTAA),0.208
11,CGCTGACCTTGGGTTCTAACCTGTTGCTT (site CGCTGGCCTAA),0.116
12,CGCTGACCTTGGGTTCTAACCTGTTGCTT (site CGCTGTCCTAA),0.231
13,CGCTGGTCTTGGGTTCTAACCTGTTGCCT (site CGCTAGTCTAG),0.309
14,CGCTGGTCTTGGGTTCTAACCTGTTGCCT (site CGCTCGTCTAG),0.145
15,CGCTGGTCTTGGGTTCTAACCTGTTGCCT (site CGCTGGTCTAG),0.0358
16,CGCTGGTCTTGGGTTCTAACCTGTTGCCT (site CGCTTGTCTAG),0.111
17,CGCTTGTCTTGGGTTCTAACCTGTTGCTT (site CACTTGACTAA),0.0517
18,CGCTTGTCTTGGGTTCTAACCTGTTGCTT (site CGCTTGTCTAA),0.0711
